Consider ten molecules from patent US20260193271A1, “PAN-KRAS INHIBITOR COMPOUND” (ADLAI NORTYE BIOPHARMA CO., LTD., priority 2022, published 2026).

The subject of one assay is SW480 (G12V). Nature of the assay: In vitro cell proliferation inhibition test (CellTiter-Glo), SW480. The class given is cell-based. The conditions noted are these: SW480 colon cell line, KRAS (p.G12V), 72 h co-incubation. A digest of the protocol:
(§1)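 Cells were seeded at 1000-5000/well by doubling time and cultured overnight at 37 °C, 5% CO2. They were then exposed for 72 h to 10-point, 3-fold compound dilutions (final top 10 μM), and viability was read by CellTiter-Glo luminescence. IC50 came from normalized signals fitted by four-parameter regression.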
For orientation: ATP-based viability assays read luminescence as a measure of living cells.

The test system of a further assay is AsPC-1 (G12D). Nature of the assay: In vitro cell proliferation inhibition test (CellTiter-Glo), AsPC-1. Type of assay: cell-based. The conditions noted are these: KRAS (p.G12D), 72 h co-incubation. A digest of the protocol:
as §1

The mark [1] stands for this setting: Homo sapiens, ASPC1, AsPC-1 pancreas cell line.

What is called IC50 is the concentration at which inhibition is half-maximal.

`CCn1c(-c2cc(-c3cnc(CN4CCOCC4)nc3)cnc2[C@H](C)OC)c2c3cc(ccc31)-c1csc(n1)C[C@H](NC(=O)[C@H]1C[C@@H]1C)C(=O)N1CCC[C@H](N1)C(=O)OCC(C)(C)C2` (atropisomer, axis not shown) [Compound 66, (1S,2S)-N-((6^3S,4S,Z)-1^1-ethyl-1^2-(2-((S)-1-methoxyethyl)-5-(2-(morpholinomethyl)pyrimidin-5-yl)pyridin-3-yl)-10,10-dimethyl-5,7-dioxo-6^1,6^2,6^3,6^4,6^5,6^6-hexahydro-1H-8-oxa-2(4,2)-thiazola-1(5,3)-indola-6(1,3)-pyridazinacycloundecaphane-4-yl)-2-methylcyclopropane-1-carboxamide]: the concentration for half-maximal inhibition (IC50) worked out at 3.4 nM in the assay with SW480 (G12V) (Homo sapiens) and 10 nM with AsPC-1 (G12D) (setting [1]).
In the case of `CCn1c(-c2cc(-c3ccc4c(c3)CN(C)C4)cnc2C(C)OC)c2c3cc(ccc31)-c1csc(n1)CC(NC(=O)C1CC1C)C(=O)N1CCCC(N1)C(=O)OCC(C)(C)C2` [Compound 2′, (1S,2S)-N-((6^3S,4S,Z)-1^1-ethyl-1^2-(2-((S)-1-methoxyethyl)-5-(2-methylisoindolin-5-yl)pyridin-3-yl)-10,10-dimethyl-5,7-dioxo-6^1,6^2,6^3,6^4,6^5,6^6-hexahydro-1^1H-8-oxa-2(4,2)-thiazola-1(5,3)-indola-6(1,3)-pyridazinacycloundecaphane-4-yl)-2-methylcyclopropane-1-carboxamide], the IC50 in the assay on SW480 (G12V) was found to be 820 nM; with AsPC-1 (G12D) (AsPC-1 pancreas cell line), 2500 nM.
As for `CCn1c(-c2cc(-c3cccc(CN4CCOCC4)n3)cnc2[C@H](C)OC)c2c3cc(ccc31)-c1csc(n1)C[C@H](NC(=O)C1C[C@@H]1C)C(=O)N1CCC[C@H](N1)C(=O)OCC(C)(C)C2` (stereo partly drawn) [Compound 13, (1S,2S)-N-((6^3S,4S,Z)-1^1-ethyl-1^2-(6′-((S)-1-methoxyethyl)-6-(morpholinomethyl)-[2,3′-bipyridin]-5′-yl)-10,10-dimethyl-5,7-dioxo-6^1,6^2,6^3,6^4,6^5,6^6-hexahydro-1^1H-8-oxa-2(4,2)-thiazola-1(5,3)-indola-6(1,3)-pyridazinacycloundecaphane-4-yl)-2-methylcyclopropane-1-carboxamide], the IC50 in the assay on SW480 (G12V) (Homo sapiens) was 2 nM; in the assay on AsPC-1 (G12D) (setting [1]) it was 2.5 nM.
For the molecule `CCn1c(-c2cc(-c3ncc(CN4CCOCC4)cn3)cnc2[C@H](C)OC)c2c3cc(ccc31)-c1csc(n1)C[C@H](NC(=O)C1C[C@@H]1C)C(=O)N1CCC[C@H](N1)C(=O)OCC(C)(C)C2` (stereo partly drawn) [Compound 14, (1S,2S)-N-((6^3S,4S,Z)-1^1-ethyl-1^2-(2-((S)-1-methoxyethyl)-5-(5-(morpholinomethyl)pyrimidin-2-yl)pyridin-3-yl)-10,10-dimethyl-5,7-dioxo-6^1,6^2,6^3,6^4,6^5,6^6-hexahydro-1^1H-8-oxa-2(4,2)-thiazola-1(5,3)-indola-6(1,3)-pyridazinacycloundecaphane-4-yl)-2-methylcyclopropane-1-carboxamide], the results for the 50% inhibitory concentration (IC50) in the assay on SW480 (G12V) (Homo sapiens) and in the assay with AsPC-1 (G12D) (setting [1]) were 2.8 nM and 1.7 nM, respectively.
As for `CCn1c(-c2cc(-c3cc(CN4CCOCC4)on3)cnc2C(C)OC)c2c3cc(ccc31)-c1csc(n1)CC(NC(=O)C1CC1C)C(=O)N1CCCC(N1)C(=O)OCC(C)(C)C2` [Compound 22′, (1S,2S)-N-((6^3S,4S,Z)-1^1-ethyl-1^2-(2-((S)-1-methoxyethyl)-5-(5-(morpholinomethyl)isoxazol-3-yl)pyridin-3-yl)-10,10-dimethyl-5,7-dioxo-6^1,6^2,6^3,6^4,6^5,6^6-hexahydro-1^1H-8-oxa-2(4,2)-thiazola-1(5,3)-indola-6(1,3)-pyridazinacycloundecaphane-4-yl)-2-methylcyclopropane-1-carboxamide], the IC50 in the assay on SW480 (G12V) is 161 nM; in the assay with AsPC-1 (G12D) (AsPC-1 pancreas cell line), over 10000 nM.
The like results for `CCn1c(-c2cc(-c3cc(CNC)on3)cnc2C(C)OC)c2c3cc(ccc31)-c1csc(n1)CC(NC(=O)C1CC1C)C(=O)N1CCCC(N1)C(=O)OCC(C)(C)C2` [Compound 23′, (1S,2S)-N-((6^3S,4S,Z)-1^1-ethyl-1^2-(2-((S)-1-methoxyethyl)-5-(5-((methylamino)methyl)isoxazol-3-yl)pyridin-3-yl)-10,10-dimethyl-5,7-dioxo-6^1,6^2,6^3,6^4,6^5,6^6-hexahydro-1^1H-8-oxa-2(4,2)-thiazola-1(5,3)-indola-6(1,3)-pyridazinacycloundecaphane-4-yl)-2-methylcyclopropane-1-carboxamide] were, in that order, 1340 nM and 2370 nM.
The matching figures for `CCn1c(-c2cc(-c3cc(C4CCCN4C)on3)cnc2C(C)OC)c2c3cc(ccc31)-c1csc(n1)CC(NC(=O)C1CC1C)C(=O)N1CCCC(N1)C(=O)OCC(C)(C)C2` [Compound 24′, (1S,2S)-N-((6^3S,4S,Z)-1^1-ethyl-1^2-(2-((S)-1-methoxyethyl)-5-(5-((R)-1-methylpyrrolidin-2-yl)isoxazol-3-yl)pyridin-3-yl)-10,10-dimethyl-5,7-dioxo-6^1,6^2,6^3,6^4,6^5,6^6-hexahydro-1^1H-8-oxa-2(4,2)-thiazola-1(5,3)-indola-6(1,3)-pyridazinacycloundecaphane-4-yl)-2-methylcyclopropane-1-carboxamide]: 3610 nM and over 10000 nM.
Take `CCn1c(-c2cc(-c3cc([C@@H]4CCCN4C)on3)cnc2[C@H](C)OC)c2c3cc(ccc31)-c1csc(n1)C[C@H](NC(=O)[C@H]1C[C@@H]1C)C(=O)N1CCC[C@H](N1)C(=O)OCC(C)(C)C2` [Compound 25′, (1S,2S)-N-((6^3S,4S,Z)-1^1-ethyl-1^2-(2-((S)-1-methoxyethyl)-5-(5-((S)-1-methylpyrrolidin-2-yl)isoxazol-3-yl)pyridin-3-yl)-10,10-dimethyl-5,7-dioxo-6^1,6^2,6^3,6^4,6^5,6^6-hexahydro-1^1H-8-oxa-2(4,2)-thiazola-1(5,3)-indola-6(1,3)-pyridazinacycloundecaphane-4-yl)-2-methylcyclopropane-1-carboxamide]: the IC50 in the assay with SW480 (G12V) was over 10000 nM; with AsPC-1 (G12D) (AsPC-1 pancreas cell line), 3420 nM.
As for `CCn1c(-c2cc(-c3cc(C4CN(C)CCO4)on3)cnc2C(C)OC)c2c3cc(ccc31)-c1csc(n1)CC(NC(=O)C1C(C)C1C)C(=O)N1CCCC(N1)C(=O)OCC(C)(C)C2` [Compound 27′, (1r,2R,3S)-N-((6^3S,4S,Z)-1^1-ethyl-1^2-(2-((S)-1-methoxyethyl)-5-(5-((S)-4-methylmorpholin-2-yl)isoxazol-3-yl)pyridin-3-yl)-10,10-dimethyl-5,7-dioxo-6^1,6^2,6^3,6^4,6^5,6^6-hexahydro-1^1H-8-oxa-2(4,2)-thiazola-1(5,3)-indola-6(1,3)-pyridazinacycloundecaphane-4-yl)-2,3-dimethylcyclopropane-1-carboxamide], the IC50 in the assay with SW480 (G12V) came to 50 nM; in the assay with AsPC-1 (G12D) (AsPC-1 pancreas cell line) it was 7.7 nM.
The like results for `CCn1c(-c2cc(-c3cc(C4CCN(C)C4)on3)cnc2C(C)OC)c2c3cc(ccc31)-c1csc(n1)CC(NC(=O)C1C(C)C1C)C(=O)N1CCCC(N1)C(=O)OCC(C)(C)C2` [Compound 29′, (1r,2R,3S)-N-((6^3S,4S,Z)-1^1-ethyl-1^2-(2-((S)-1-methoxyethyl)-5-(5-((R)-1-methylpyrrolidin-3-yl)isoxazol-3-yl)pyridin-3-yl)-10,10-dimethyl-5,7-dioxo-6^1,6^2,6^3,6^4,6^5,6^6-hexahydro-1^1H-8-oxa-2(4,2)-thiazola-1(5,3)-indola-6(1,3)-pyridazinacycloundecaphane-4-yl)-2,3-dimethylcyclopropane-1-carboxamide] were, in that order, 11.4 nM and 5.3 nM.
